Laboratory results as given in article PMC12669672, “Structural insights into selective and dual antagonism of EP2 and EP4 prostaglandin receptors” (The EMBO Journal, 2025).
Several values for one entry are separate records, joined by “and”; a condition that tells them apart may be missing. Equal values may be shown once.

Experiments:
EP2 WT = EP2 WT (Homo sapiens, UniProt P43116); experiment: GloSensor cAMP assay, PGE2 induced cAMP signaling (activation); type: cell-based; parameters: The full-length EP2 or EP4 was cloned into the pcDNA3.1 vector (Invitrogen), incorporating an N-terminal FLAG tag; expressed in transfected cells; host or cells: AD293
Sequence of EP2 WT (P43116 whole entry): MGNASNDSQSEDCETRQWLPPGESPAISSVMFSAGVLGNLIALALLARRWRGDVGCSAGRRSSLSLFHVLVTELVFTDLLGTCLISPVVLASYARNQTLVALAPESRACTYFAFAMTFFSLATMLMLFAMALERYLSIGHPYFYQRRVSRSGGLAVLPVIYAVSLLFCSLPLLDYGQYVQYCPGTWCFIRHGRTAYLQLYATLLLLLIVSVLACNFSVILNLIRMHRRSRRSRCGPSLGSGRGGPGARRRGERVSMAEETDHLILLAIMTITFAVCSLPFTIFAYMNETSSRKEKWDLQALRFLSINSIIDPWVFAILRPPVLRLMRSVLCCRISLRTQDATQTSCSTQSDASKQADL
Method: (§1) The full-length EP2 or EP4 was cloned into the pcDNA3.1 vector (Invitrogen), incorporating an N-terminal FLAG tag. AD293 cells were seeded in six-well plates containing DMEM supplemented with 10% dialyzed FBS 1 day prior to transfection. Following overnight growth, cells were transfected with a 1:1 ratio of receptor construct and GloSensor22F cAMP biosensor (Promega) plasmids.
(§2) Twenty-four hours post-transfection, the cells were transferred to CO2-independent media containing 2% GloSensor cAMP Reagent (Promega) and distributed into 384-well assay plates at a density of 4000 cells per well in 10 μL. […] The plates were then incubated at 37 °C for an additional hour before luminescence measurements were taken using an EnVision plate reader.
(§3) Data analysis was performed using GraphPad Prism software v8.0.1. A nonlinear regression analysis, employing a sigmoidal dose–response model, was conducted to determine the Emax values and half-maximum inhibitory concentrations (IC50) for each compound tested.

EP2-D311A = molecular target: T1, EP2-D311A (Homo sapiens, UniProt P43116, D311A); experiment: as above; type: cell-based
T1 construct: The full-length EP2 or EP4 was cloned into the pcDNA3.1 vector (Invitrogen), incorporating an N-terminal FLAG tag; expressed in transfected cells; host or cells: AD293
T1 sequence (P43116 whole entry D311A): as the sequence (P43116 whole entry) above, with D311A counted along it
Method: as §1, §2, §3

EP2-F273A = molecular target: T2, EP2-F273A (Homo sapiens, UniProt P43116, F273A); experiment: as above; type: cell-based
T2 construct: The full-length EP2 or EP4 was cloned into the pcDNA3.1 vector (Invitrogen), incorporating an N-terminal FLAG tag; expressed in transfected cells; host or cells: AD293
T2 sequence (P43116 whole entry F273A): as the sequence (P43116 whole entry) above, with F273A counted along it
Method: as §1, §2, §3

[1] = test system: WT and mutant EP2 receptors; experiment: Cell-surface expression, FACS with anti-FLAG FITC antibody; parameters: species or system human; conditions: single experiments 1st-3rd
Method: Cell-surface expression levels of both wild-type and mutant receptors were assessed using a fluorescence-activated cell sorting (FACS) assay. Briefly described, AD293 cells expressing FLAG-tagged EP2 or EP4 receptors were collected 24 h post-transfection. These cells were then incubated with a mouse anti-FLAG FITC-conjugated antibody (Sigma) at a 1:200 dilution for 2 h at 4 °C in a dark environment. Subsequently, cells were washed with 100 µL of PBS. Surface expression levels were quantified by measuring the fluorescence intensity of FITC using a Guava® easyCyte flow cytometer. Data were normalized relative to the expression levels of the wild-type receptors. These experiments were conducted in triplicate, and the results were expressed as mean ± S.E.M.

[2] = single experiments 1st-3rd, Appendix Fig. S6A
[3] = 1 h, PGE2 log([M]) -7, single experiments 1st-3rd, Fig. 2D, read-out: % cAMP activity (normalized to WT)

Compound	Surface expression ( 100% WT) [1]	other results
CCCCC[C@H](O)/C=C/[C@H]1[C@H](O)CC(=O)[C@@H]1C/C=C\CCCC(=O)O [PGE2, Prostaglandin E2]		remaining activity at 0.0001 µM (EP2 WT; 1 h, PGE2 log([M]) -10, single experiments 1st-3rd, Fig. 2D, read-out: % cAMP activity (normalized to WT)): 16.5%; Emax (EP2 WT; mean ± S.E.M., n = 3): 100 ± 3.9%; PGE2 cAMP activity (∆pIC50 from EP2 WT) (EP2 WT; [2]): 0.007 and -0.051 and 0.045; remaining activity at 0.1 µM (EP2-D311A; [3]): 91.9%; Emax (EP2-D311A; mean ± S.E.M., n = 3): 92.4 ± 3.9%; PGE2 cAMP activity (∆pIC50 from EP2 WT) (EP2-D311A; [2]): -1.566 and -1.416 and -1.487; remaining activity at 1 µM (EP2-F273A; 1 h, PGE2 log([M]) -6, single experiments 1st-3rd, Fig. 2D, read-out: % cAMP activity (normalized to WT)): 96.2%; remaining activity at 0.1 µM (EP2-F273A; [3]): 32.4%; Emax (EP2-F273A; mean ± S.E.M., n = 3): 117 ± 2.9%
EP2 E23A	92.71% and 100.19% and 95.51%	
EP2 M116A	99.63% and 105.23% and 100.56%	
EP2 S28A	106.92% and 107.85% and 105.61%	
EP2 S86A	89.91% and 90.65% and 110.47%	
EP2 S305A	98.88% and 97.38% and 93.83%	
EP2 S308A	115.51% and 112.90% and 88.41%	
EP2 T82A	106.36% and 116.26% and 103.74%	
EP2 W186A	116.07% and 83.36% and 84.86%	
EP2 WT	104.67% and 99.81% and 95.51%	
